# Measured values taken from patent publication US20260364184A1, “COMPOUND BASED ON OXOISOINDOLINYL-SUBSTITUTED TETRAHYDROPYRIMIDINE-DIONE AND USE THEREOF” (GLUETACS THERAPEUTICS (SHANGHAI) CO., LTD., priority 2023, published 2026).
# Experiments:
# EGFR = biological target: T1, EGFR (Homo sapiens, UniProt P00533); test: Western blot degradation of EGFR; assay type: cell-based; conditions: H1975 Cell; 24 hours
# T1 construct: L858R/T790M in cis, heterozygous with wild type), Western blot
# Protocol: Conventional Western blot assay was performed to evaluate the effects of the compounds of the present disclosure on the expression of target proteins in cells.
# (1) Cell Seeding and Protein Harvesting: The selected cells were processed according to the cell seeding procedure and protein harvesting procedure in Table II-2.
# (2) To the collected supernatant, 5×SDS sample loading buffer was added, followed by denaturation at 95 °C for 5 minutes. The denatured samples were then separated by SDS-PAGE electrophoresis on a polyacrylamide gel. Proteins were transferred to a nitrocellulose membrane (0.45 μm NC membrane), blocked with blocking buffer at room temperature for 1 hour, and subjected to antibody incubation and development procedures according to the antibody manufacturer's instructions (Cell Signaling Technology).
# Half-Maximal Degradation Concentration value (the drug concentration required for degrading proteins by 50%, abbreviated as DC50) reads method: comparing the grayscale values of Western blot bands from drug-treated samples with those from blank DMSO-treated controls, and identifying the drug concentration range at which the grayscale value is half that of the DMSO-treated control bands.
# DC50 values can be calculated using ImageJ software to measure grayscale values of Western blot bands from drug-treated samples. The concentration-response curve is fitted to estimate the drug concentration corresponding to half the grayscale value.
# Target protein remaining (%) refers to the percentage of target protein remaining in cells after treatment with protein degrader compounds.
# Calculation method for target protein remaining (%): Use ImageJ software to measure grayscale values of Western blot bands from drug (protein degrader)-treated samples. The grayscale value of drug-treated bands is divided by that of internal control protein bands, and the resulting quotient is normalized to obtain the relative percentage of remaining target protein after protein degrader treatment.
# Target protein degradation rate (%)=1−target protein remaining (%).
# [1] = test system: Human large cell immunoblastic lymphoma cell line SR; test: Inhibition of SR cell proliferation (CellTiter luminescent viability); assay type: cell-based; conditions: Table IE1, CDK4/6 inhibitor-based, 96 hours, read-out: Inhibitory activity (IC50, nM) on tumor cell proliferation, SR
# Protocol: (§1) The tumor cells used herein were cultured in a cell culture medium listed in table 3 at 37 °C in an incubator with 5% CO2. Prior to experimentation, all cell lines used were correctly identified by STR profiling, and tested negative for mycoplasma contamination using a mycoplasma detection kit through routine screenings.
# (§2) The IC50 values of the compounds of the present disclosure (including the compounds in Table 1, Table 2, and Examples 1-468) were determined using the CellTiter-Meiluncell Luminescent Cell Viability Assay Kit from Dalian Meilun Biotech Co., Ltd. The detailed procedure is as follows: Tumor cells were seeded in 96-well cell culture plates at the densities specified in Table 4. On the following day, the test compounds of the present disclosure were subjected to serial dilution. The dilution can be performed according to one of the following two methods: • (1) The first dilution method: The test compounds of the present disclosure (including the compounds in Table 1, Table 2, and Examples 1-468) were subjected to 5-fold serial dilutions starting from a highest concentration of 2000 μM, resulting in a total of 9 concentrations from high to low (2000, 400, 80, 16, 3.2, 0.64, 0.128, 0.0256, 0.00512 μM). Subsequently, 0.5 μL of the test compound dilution was transferred into the 96-well plate containing the cells, with each well containing 100 μL of cell culture medium. […] Into the 96-well plate, the diluted test compounds and corresponding detection reagents were added, resulting in final test compound concentrations of 500 nM and 10 nM, respectively. The experimental procedure is described below using the diluted 2 μM test compound as an example.
# (§3) 0.5 μL of the aforementioned diluted compound of the present disclosure (including the compounds in Table 1, Table 2, and Examples 1-468) was added to the seeded cells in 100 μL of medium, yielding a final test compound concentration of 10 nM. After the cells were treated with the compounds of the present disclosure for a specified period, the cell viability assay reagent was added to the culture medium according to the kit's instructions to determine cell viability. […] All controls were treated using the same procedure as the compounds of the present disclosure. The growth inhibition curves for the compounds of the present disclosure were plotted using Prism GraphPad software, and the IC50 values were calculated therefrom.
# CDK6 = biological target: T2, CDK6 (Homo sapiens, UniProt Q00534+Q96SW2); test: Western blot degradation of CDK6; assay type: cell-based; conditions: MDA-MB-231 Cell; 24 hours
# T2 construct: expression of target proteins in cells; endogenous in cells
# T2 sequence (Q00534 whole entry): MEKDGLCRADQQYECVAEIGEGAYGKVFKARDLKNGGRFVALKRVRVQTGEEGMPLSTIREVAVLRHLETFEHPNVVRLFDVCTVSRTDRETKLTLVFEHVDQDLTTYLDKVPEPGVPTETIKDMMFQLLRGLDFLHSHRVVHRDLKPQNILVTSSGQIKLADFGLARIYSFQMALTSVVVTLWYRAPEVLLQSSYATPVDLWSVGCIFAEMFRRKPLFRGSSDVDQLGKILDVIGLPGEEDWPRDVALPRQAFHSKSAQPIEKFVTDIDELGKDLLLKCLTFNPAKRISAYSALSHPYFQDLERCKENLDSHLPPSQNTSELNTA
# T2 sequence (Q96SW2 whole entry): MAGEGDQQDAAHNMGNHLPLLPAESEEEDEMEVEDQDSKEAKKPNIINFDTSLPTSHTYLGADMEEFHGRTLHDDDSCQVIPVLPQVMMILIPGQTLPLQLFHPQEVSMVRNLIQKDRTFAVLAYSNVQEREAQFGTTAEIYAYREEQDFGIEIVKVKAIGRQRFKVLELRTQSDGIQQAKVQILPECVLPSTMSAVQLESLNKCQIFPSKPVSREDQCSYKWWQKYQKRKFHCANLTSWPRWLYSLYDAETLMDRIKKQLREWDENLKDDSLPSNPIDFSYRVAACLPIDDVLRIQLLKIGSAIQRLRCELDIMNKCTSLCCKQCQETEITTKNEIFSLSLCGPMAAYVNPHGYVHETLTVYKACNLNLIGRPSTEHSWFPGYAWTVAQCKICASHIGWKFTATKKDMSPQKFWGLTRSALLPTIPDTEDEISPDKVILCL
# T2 sequence (Q16531 whole entry partner): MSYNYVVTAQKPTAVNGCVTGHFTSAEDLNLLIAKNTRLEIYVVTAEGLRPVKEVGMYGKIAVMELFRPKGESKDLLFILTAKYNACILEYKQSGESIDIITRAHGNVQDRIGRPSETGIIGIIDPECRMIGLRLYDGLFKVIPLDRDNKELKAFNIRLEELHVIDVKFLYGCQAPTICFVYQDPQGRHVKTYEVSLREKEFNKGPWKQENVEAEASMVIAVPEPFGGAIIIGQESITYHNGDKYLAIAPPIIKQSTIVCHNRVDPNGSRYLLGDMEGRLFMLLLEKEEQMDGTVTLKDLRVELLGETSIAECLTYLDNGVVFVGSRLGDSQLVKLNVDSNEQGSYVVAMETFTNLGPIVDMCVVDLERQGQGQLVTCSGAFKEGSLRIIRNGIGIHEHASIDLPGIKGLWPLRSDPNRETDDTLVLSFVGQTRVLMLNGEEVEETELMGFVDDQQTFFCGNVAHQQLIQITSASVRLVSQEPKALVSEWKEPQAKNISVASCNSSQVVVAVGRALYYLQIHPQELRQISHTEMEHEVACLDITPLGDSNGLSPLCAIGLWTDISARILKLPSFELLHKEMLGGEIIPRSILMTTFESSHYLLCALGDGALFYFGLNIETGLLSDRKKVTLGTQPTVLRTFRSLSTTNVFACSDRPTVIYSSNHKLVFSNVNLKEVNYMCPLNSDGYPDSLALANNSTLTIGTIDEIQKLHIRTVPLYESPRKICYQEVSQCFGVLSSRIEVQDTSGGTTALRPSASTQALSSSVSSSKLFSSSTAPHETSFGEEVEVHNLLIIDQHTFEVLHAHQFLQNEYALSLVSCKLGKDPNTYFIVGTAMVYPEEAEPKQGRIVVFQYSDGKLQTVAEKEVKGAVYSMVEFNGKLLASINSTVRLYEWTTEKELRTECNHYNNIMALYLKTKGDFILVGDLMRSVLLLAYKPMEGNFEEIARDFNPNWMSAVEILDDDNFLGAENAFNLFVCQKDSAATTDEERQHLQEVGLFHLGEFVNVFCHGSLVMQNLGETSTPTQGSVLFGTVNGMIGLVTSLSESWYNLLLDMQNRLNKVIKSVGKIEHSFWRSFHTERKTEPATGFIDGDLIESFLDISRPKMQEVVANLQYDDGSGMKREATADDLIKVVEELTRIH
# Procedure, shortened: (§4)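 Compound-treated cells harvested; lysates denatured 5 min at 95 °C, run on SDS-PAGE, blotted to NC membrane, blocked 1 h RT, probed with antibodies. Densitometry vs DMSO → DC50; target normalised to internal control → % remaining, degradation = 1 − remaining.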
# [2] = biological target: T3, human Cereblon WT GST-tagged protein (CRBN) (Homo sapiens, UniProt Q96SW2); test: CRBN binding by HTRF (Cereblon binding kit)
# T3 construct: purchased CISBIO 64BDCRBNPEH
# T3 sequence (Q96SW2 whole entry): as the sequence (Q96SW2 whole entry) above
# Procedure, shortened: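 GST-tagged human Cereblon WT was incubated 3 h at room temperature with compound, thalidomide-Re tracer and Eu anti-GST antibody. Final compound concentrations were 10 to 0.00064 µM (7 points) or 2 and 0.5 µM. Inhibition rate was calculated from HTRF 665/620 nm ratios versus solvent and blank controls.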
# CDK4 = biological target: T4, CDK4 (Homo sapiens, UniProt P11802+Q96SW2); test: Western blot degradation of CDK4; assay type: cell-based; conditions: MDA-MB-231 Cell; 24 hours
# T4 construct: expression of target proteins in cells; endogenous in cells
# T4 sequence (P11802 whole entry): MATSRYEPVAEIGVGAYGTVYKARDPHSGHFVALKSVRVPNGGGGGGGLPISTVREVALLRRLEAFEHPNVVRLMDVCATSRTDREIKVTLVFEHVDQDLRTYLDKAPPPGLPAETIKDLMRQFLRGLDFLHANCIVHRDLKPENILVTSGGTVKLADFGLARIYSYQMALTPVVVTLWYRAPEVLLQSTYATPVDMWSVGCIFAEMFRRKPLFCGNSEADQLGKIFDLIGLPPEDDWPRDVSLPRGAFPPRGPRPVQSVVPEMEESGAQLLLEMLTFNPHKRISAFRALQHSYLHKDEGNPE
# T4 sequence (Q96SW2 whole entry): as the sequence (Q96SW2 whole entry) above
# T4 sequence (Q16531 whole entry partner): as the sequence (Q16531 whole entry partner) above
# Procedure, shortened: as §4
# [3] = test system: Human myeloid monocytic leukemia cell line (MV-4-11); test: Inhibition of MV-4-11 cell proliferation (CellTiter luminescent viability); assay type: cell-based; conditions: Table IE1, CDK4/6 inhibitor-based; MV-4-11, 96 hours; read-out: Inhibitory activity (IC50, nM) on tumor cell proliferation, MV-4-11
# Procedure, shortened: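 IC50 is fitted from luminescent viability (CellTiter-Meiluncell) curves. Nine-point, 5-fold dilution series (top stock 2000 μM) are added at 0.5 μL per 100 μL medium to cells plated the day before, with growth at 37 °C and 5% CO2.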
# [4] = test system: Human neuroblastoma cell line (SK-N-AS); test: Inhibition of SK-N-AS cell proliferation (CellTiter luminescent viability); assay type: cell-based; conditions: Table II2, EZH2 inhibitor-based, 96 hours; for inhibition at 0.01 µM: 10 nM, read-out: Inhibition Rate at 10 nM (%); for inhibition at 0.5 µM: 500 nM, read-out: Inhibition Rate at 500 nM (%)
# Protocol: as §1, §2, §3
# [5] = test system: Human acute lymphocytic leukemia T lymphocytes cell line (CCRF-CEM); test: Inhibition of CCRF-CEM cell proliferation (CellTiter luminescent viability); assay type: cell-based; conditions: Table IE1, CDK4/6 inhibitor-based, 96 hours, read-out: Inhibitory activity (IC50, nM) on tumor cell proliferation, CCRF-CEM
# [6] = test system: Human Acute T Lymphoblastic Leukemia Cells (Molt-4); test: Inhibition of Molt-4 cell proliferation (CellTiter luminescent viability); assay type: cell-based; conditions: Table IE1, CDK4/6 inhibitor-based; Molt-4, 96 hours; read-out: Inhibitory activity (IC50, nM) on tumor cell proliferation, Molt-4
# T1 sequence (P00533 25-1210): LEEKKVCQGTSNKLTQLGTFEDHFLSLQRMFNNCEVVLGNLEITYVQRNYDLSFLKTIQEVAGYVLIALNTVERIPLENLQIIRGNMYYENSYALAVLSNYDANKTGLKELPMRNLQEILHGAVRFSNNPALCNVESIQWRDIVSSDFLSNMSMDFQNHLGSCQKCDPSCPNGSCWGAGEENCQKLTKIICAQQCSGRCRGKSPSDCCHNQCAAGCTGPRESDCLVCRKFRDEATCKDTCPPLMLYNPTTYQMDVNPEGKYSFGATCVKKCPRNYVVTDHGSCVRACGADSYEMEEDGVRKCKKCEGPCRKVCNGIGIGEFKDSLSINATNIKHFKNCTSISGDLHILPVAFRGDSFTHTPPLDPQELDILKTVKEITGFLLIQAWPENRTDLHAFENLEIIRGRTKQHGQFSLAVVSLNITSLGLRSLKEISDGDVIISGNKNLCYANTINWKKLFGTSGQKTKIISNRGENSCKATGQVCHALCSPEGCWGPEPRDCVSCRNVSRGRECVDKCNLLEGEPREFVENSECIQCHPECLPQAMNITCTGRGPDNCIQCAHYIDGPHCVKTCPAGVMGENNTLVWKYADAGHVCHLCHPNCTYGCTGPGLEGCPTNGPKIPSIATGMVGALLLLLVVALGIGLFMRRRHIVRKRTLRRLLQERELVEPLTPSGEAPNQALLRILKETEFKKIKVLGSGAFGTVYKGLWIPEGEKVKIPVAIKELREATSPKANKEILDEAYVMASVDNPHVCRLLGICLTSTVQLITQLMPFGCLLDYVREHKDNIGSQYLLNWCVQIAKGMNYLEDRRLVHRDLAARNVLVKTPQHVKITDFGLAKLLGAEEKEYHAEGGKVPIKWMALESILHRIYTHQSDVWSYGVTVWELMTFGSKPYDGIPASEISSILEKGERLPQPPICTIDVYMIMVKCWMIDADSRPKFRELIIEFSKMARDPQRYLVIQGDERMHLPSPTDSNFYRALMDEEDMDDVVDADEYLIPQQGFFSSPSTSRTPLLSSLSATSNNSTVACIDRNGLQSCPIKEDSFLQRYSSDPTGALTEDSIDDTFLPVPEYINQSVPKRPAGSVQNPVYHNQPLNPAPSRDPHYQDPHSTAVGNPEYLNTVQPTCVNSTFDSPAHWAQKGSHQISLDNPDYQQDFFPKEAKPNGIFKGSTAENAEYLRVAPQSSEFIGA
# T1 sequence (Q96SW2 whole entry partner): as the sequence (Q96SW2 whole entry) above
smiles,measurement,setting,value
"CN(CC1CCN(c2ccc3c(c2)C(=O)N(N2CCC(=O)NC2=O)C3=O)CC1)C1CCN(c2ccc(Nc3ncc4nc(Nc5ccccc5)n(C5CCCC5)c4n3)cc2)CC1 [GT-05843, 5-(4-(((1-(4-((9-cyclopentyl-8-(phenylamino)-9H-purin-2-yl)amino)phenyl)piperidin-4-yl)(methyl)amino)methyl)piperidin-1-yl)-2-(2,4-dioxotetrahydropyrimidin-1(2H)-yl)isoindoline-1,3-dione]",Degradation of substrate protein EGFR (substrate protein remaining %),EGFR,A (0%≤substrate protein remaining %≤80%)
"CC(C)n1nc(N2CCN(CC3CCN(c4ccc5c(c4)C(=O)N(N4CCC(=O)NC4=O)C5=O)CC3)CC2)c2cnc(Nc3ccnc(-c4cnn(S(=O)(=O)C5CC5)c4)n3)cc21 [GT-06073, 5-(4-((4-(6-((2-(1-(cyclopropylsulfonyl)-1H-pyrazol-4-yl)pyrimidin-4-yl)amino)-1-isopropyl-1H-pyrazolo[4,3-c]pyridin-3-yl)piperazin-1-yl)methyl)piperidin-1-yl)-2-(2,4-dioxotetrahydropyrimidin-1(2H)-yl)isoindoline-1,3-dione]",Degradation of substrate protein EGFR (substrate protein remaining %),EGFR,A (0%≤substrate protein remaining %≤80%)
"CN(Cc1ccc2c(c1)C(=O)N(N1CCC(=O)NC1=O)C2=O)C1CCN(c2ccc(Nc3ncc4nc(Nc5ccccc5)n(C5CCCC5)c4n3)cc2)CC1 [GT-07113, 5-(((1-(4-((9-cyclopentyl-8-(phenylamino)-9H-purin-2-yl)amino)phenyl)piperidin-4-yl)(methyl)amino)methyl)-2-(2,4-dioxotetrahydropyrimidin-1(2H)-yl)isoindoline-1,3-dione]",Degradation of substrate protein EGFR (substrate protein remaining %),EGFR,A (0%≤substrate protein remaining %≤80%)
"Cc1nc2c(F)cc(-c3nc(Nc4ccc(CN5CCN(CC6CCN(c7cccc8c7C(=O)N(N7CCC(=O)NC7=O)C8=O)CC6)CC5)cn4)ncc3F)cc2n1C(C)C [GT-06663, 2-(2,4-dioxotetrahydropyrimidin-1(2H)-yl)-4-(4-((4-((6-((5-fluoro-4-(4-fluoro-1-isopropyl-2-methyl-1H-benzo[d]imidazol-6-yl)pyrimidin-2-yl)amino)pyridin-3-yl)methyl)piperazin-1-yl)methyl)piperidin-1-yl)isoindoline-1,3-dione]",IC50,[1],400 to 800 nM
same,Degradation of substrate protein CDK6 (substrate protein remaining %),CDK6,A (0%≤substrate protein remaining %≤80%)
same,Inhibition Rate at 0.5 μM (%),[2]; 0.5 μM,a2 (20% < a2 ≤ 30%)
same,Inhibition Rate at 2 μM (%),[2]; 2 μM,a5 (53% < a5 ≤ 60%)
same,Degradation of substrate protein CDK4 (substrate protein remaining %),CDK4,B (80%<substrate protein remaining %≤100%)
same,IC50,[3],10 to 50 nM
"CCCc1cc(C)[nH]c(=O)c1CNC(=O)c1cc(-c2ccc(N3CCN(C(C)C)CC3)nc2)cc2c1cnn2C(C)C [UNC1999, reference compound]",inhibition at 0.01 µM,[4],0 to 5%
same,inhibition at 0.5 µM,[4],0 to 5%
"Cc1nc2c(F)cc(-c3nc(Nc4ccc(N5CCC(N(C)CC6CCN(c7cccc8c7C(=O)N(N7CCC(=O)NC7=O)C8=O)CC6)CC5)cn4)ncc3F)cc2n1C(C)C [GT-06734, 2-(2,4-dioxotetrahydropyrimidin-1(2H)-yl)-4-(4-(((1-(6-((5-fluoro-4-(4-fluoro-1-isopropyl-2-methyl-1H-benzo[d]imidazol-6-yl)pyrimidin-2-yl)amino)pyridin-3-yl)piperidin-4-yl)(methyl)amino)methyl)piperidin-1-yl)isoindoline-1,3-dione]",IC50,[5],400 to 800 nM
same,IC50,[1],100 to 300 nM
same,IC50,[6],400 to 800 nM
same,Degradation of substrate protein CDK6 (substrate protein remaining %),CDK6,A (0%≤substrate protein remaining %≤80%)
same,Degradation of substrate protein CDK4 (substrate protein remaining %),CDK4,A (0%≤substrate protein remaining %≤80%)
same,IC50,[3],50 to 100 nM
"CCN(c1cc(-c2ccc(N3CCC(N(C)Cc4ccc5c(c4)CN(N4CCC(=O)NC4=O)C5=O)CC3)cc2)cc(C(=O)NCc2c(C)cc(C)[nH]c2=O)c1C)C1CCOCC1 [GT-08512, N-((4,6-dimethyl-2-oxo-1,2-dihydropyridin-3-yl)methyl)-4′-(4-(((2-(2,4-dioxotetrahydropyrimidin-1(2H)-yl)-1-oxoisoindolin-5-yl)methyl)(methyl)amino)piperidin-1-yl)-5-(ethyl(tetrahydro-2H-pyran-4-yl)amino)-4-methyl-[1,1′-biphenyl]-3-carboxamide]",inhibition at 0.01 µM,[4],10 to 15%
same,inhibition at 0.5 µM,[4],20 to 30%
"CCN(c1cc(-c2ccc(N3CCN(CC4CCN(c5cccc6c5C(=O)N(N5CCC(=O)NC5=O)C6=O)CC4)CC3)cc2)cc(C(=O)NCc2c(C)cc(C)[nH]c2=O)c1C)C1CCOCC1 [GT-08521, N-((4,6-dimethyl-2-oxo-1,2-dihydropyridin-3-yl)methyl)-4′-(4-((1-(2-(2,4-dioxotetrahydropyrimidin-1(2H)-yl)-1,3-dioxoisoindolin-4-yl)piperidin-4-yl)methyl)piperazin-1-yl)-5-(ethyl(tetrahydro-2H-pyran-4-yl)amino)-4-methyl-[1,1′-biphenyl]-3-carboxamide]",inhibition at 0.01 µM,[4],20 to 30%
same,inhibition at 0.5 µM,[4],30 to 40%
"CCN(c1cc(-c2ccc(CN3CCN(CC4CCN(c5cccc6c5C(=O)N(N5CCC(=O)NC5=O)C6=O)CC4)CC3)cc2)cc(C(=O)NCc2c(C)cc(C)[nH]c2=O)c1C)C1CCOCC1 [GT-08519, N-((4,6-dimethyl-2-oxo-1,2-dihydropyridin-3-yl)methyl)-4′-((4-((1-(2-(2,4-dioxotetrahydropyrimidin-1(2H)-yl)-1,3-dioxoisoindolin-4-yl)piperidin-4-yl)methyl)piperazin-1-yl)methyl)-5-(ethyl(tetrahydro-2H-pyran-4-yl)amino)-4-methyl-[1,1′-biphenyl]-3-carboxamide]",inhibition at 0.01 µM,[4],10 to 15%
same,inhibition at 0.5 µM,[4],20 to 30%
